Test: Hygroscopicity: water content of crystals after storage in dessicator
Format: physicochemical
Settings: after 24 hours inside a dessicator at 60° C. and humidity of 100%
Procedure: For example, Aripiprazole Anhydride Crystals B of the present invention maintain a water content of 0.4% or less after 24 hours inside a dessicator set at a temperature of 60° C. and a humidity of 100%.
Well-known methods of measuring water content can be used as long as they are methods commonly used for measuring the water content of crystals. For example, a method such as the Karl Fischer method can be used.

water content: ≤ 0.4%
SMILES: O=C1CCc2ccc(OCCCCN3CCN(c4cccc(Cl)c4Cl)CC3)cc2N1 [Aripiprazole Anhydride Crystals B, aripiprazole]

Source: patent publication US9358207B2, “Flashmelt oral dosage formulation” (OTSUKA PHARMACEUTICAL CO., LTD., priority 2000, dated 2016)
